Values quoted from earlier work as cited in US11607129B2, “Combined positron emission tomography (PET)-electron paramagnetic resonance (EPR) imaging device” (West Virginia University, priority 2018, dated 2023).

Tested on: mouse
Conditions: as confirmed by recent cytotoxicity studies; probe hydrophilic, remains extracellular

phosphonated triarylmethyl radicals [pTAM]
toxicity to the mouse: minimal toxicity
